These results are taken from article PMC10363480 (Plant Communications, 2023).

The first assay deals with mitochondria or chloroplast of Chlamydomonas reinhardtii. The experiment in a line: Subcellular localization of Venus reporter by epifluorescence microscopy (manual targeting assignment). The format is cell-based. The note with it: C-terminal element of RCA1-cTP added to the named peptide; Figure 2 rows E and F; bare name = K and R versions. The essentials: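 Targeting peptide variants fused to Venus reporter, transformed into Chlamydomonas wild-type T222+ (CC-5101); three independent transformant lines per construct. Localization assigned manually from epifluorescence images using chlorophyll autofluorescence for chloroplast and 0.1 μM MitoTracker Red CMXRos (30 min) for mitochondria. Automated segmentation used for validation.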
On to “KYYGNGVHCTKSGCSVNWGEAFSAGVHRLANGGNGFW [LCA, leucocin A, HA-RAMP antimicrobial peptide, reference compound]”, for which the “chloroplast targeting upon addition of cTP-C (P^c)” value is reported as “enabled chloroplast targeting”.

Still in this assay, the particulars now being: C-terminal element of RCA1-cTP added to the named peptide; Figure 2 rows E and F; bare name = K and R versions; listed as LCAK.
“KYYGNGVHCTKSGCSVNWGEAFSAGVHRLANGGNGFW [LCA, leucocin A, HA-RAMP antimicrobial peptide, reference compound]”: the “chloroplast targeting upon addition of cTP-C (P^c)” value was “Gain of partial chloroplast targeting”.

Still in this assay, the particulars now being: Figure 2; bare name = K and R versions.
In the case of “KYYGNGVHCTKSGCSVNWGEAFSAGVHRLANGGNGFW [LCA, leucocin A, HA-RAMP antimicrobial peptide, reference compound]”, the “targeting when combining cTP-N with mTP-C (^cP^m)” value is reported as “chloroplast targeting”.

Still in this assay, the particulars now being: manual targeting assignment of the Venus reporter construct in Chlamydomonas: Neither / Mitochondria / Chloroplast / Dual, (partial) = partial targeting.
Take “MQVTMKSSAVSGQRVSFLTTFRDLAIRAARSAGQSVLSTLSCRLSNTCSVRRAQLQVVASSRKQMGRWRSIDAGVDASDDQ [c.B2I.R.c]”: the Localisation entry was “Chloroplast”.
For the sequence “MGWIRDFGRRIERVGQHTRDATIQTIAVAQQAANVAATLRG [S1D.R]”, the Localisation result is reported as “Neither”.
For MDEVNNDNCRIRFRGDISSESDRMNINY [RP2.R], the Localisation entry is on record as “Neither”.
As to “MLKRVGQSLVPFARAGLTQTAESFRGVSSQFFDAPNGPSVKQVLIEDEW [MH.R.m]”, the Localisation entry is listed as “Mitochondria (partial)”.
In the case of “MQVTMKSSAVSGQRVRYYGNGVSCNRRGCSVDWGRAIGIIGNNAAANLTTGGRAGWRG [c.EHF.R]”, the Localisation result is “Chloroplast (partial)”.
On to “MGGAKVATKSVKKAQLQVVASSKKQMGKWKSIDAGVDASDDQ [CH.K.c]”, for which the Localisation result is “Neither”.
For “MQVTMKSSAVSGQRVMGWIRDFGRRIERVGQHTRDATIQTIAVAQQAANVAATLRGSVRRAQLQVVASSRKQMGRWRSIDAGVDASDDQ [c.S1D.R.c]”, the Localisation result is “Chloroplast”.
On the same count and under the same terms, under MQVTMKSSAVSGQKVGGAKVATK [c.CH.K] stands “Neither”.
With “MQVTMKSSAVSGQRVGRIPVRAIRRAGAAIGRGLRAINIASTAHDVYSFFRPRHRRRLTQTAESFRGVSSQFFDAPNGPSVKQVLIEDEW [c.SIM.R.m]”, the Localisation result is reported as “Chloroplast”.
In the case of “MQVTMKSSAVSGQRVMGWIRDFGRRIERVGQHTRDATIQTIAVAQQAANVAATLRGLTQTAESFRGVSSQFFDAPNGPSVKQVLIEDEW [c.S1D.R.m]”, the Localisation result is “Dual”.
On the same count and under the same terms, for “MQVTMKSSAVSGQRVDEVNNDNCRIRFRGDISSESDRMNINYSVRRAQLQVVASSRKQMGRWRSIDAGVDASDDQ [c.RP2.R.c]” the value was “Neither”; for “MQVTMKSSAVSGQRVMGLLLDTLRGAARDIAGIALERLRCRITGCRPSVRRAQLQVVASSRKQMGRWRSIDAGVDASDDQ [c.R2G.R.c]”, “Dual”; for “MQVTMKSSAVSGQKVGGAKVATKSVKKAQLQVVASSKKQMGKWKSIDAGVDASDDQ [c.CH.K.c]”, “Chloroplast (partial)”.
Same read-out and setting: under “MQVTMKSSAVSGQRVSFLTTFRDLAIRAARSAGQSVLSTLSCRLSNTCLTQTAESFRGVSSQFFDAPNGPSVKQVLIEDEW [c.B2I.R.m]” stands “Dual”.
With “MLKKVGQSLVPFAKAGLTQTAESFKGVSSQFFDAPNGPSVKQVLIEDEW [MH.K.m]”, the Localisation entry was “Neither”.
“MQVTMKSSAVSGQRVLTQTAESFRGVSSQFFDAPNGPSVKQVLIEDEW [c.-.m]”: the Localisation entry is given as “Neither”.
With “MGLLLDTLRGAARDIAGIALERLRCRITGCRPSVRRAQLQVVASSRKQMGRWRSIDAGVDASDDQ [R2G.R.c]”, the Localisation entry is given as “Neither”.
With “MQVTMKSSAVSGQRVMLKRVGQSLVPFARAGLTQTAESFRGVSSQFFDAPNGPSVKQVLIEDEW [c.MH.R.m]”, the Localisation entry is recorded as “Neither”.
Regarding MLKRVGQSLVPFARAG [MH.R], the Localisation entry is “Mitochondria (partial)”.
In the case of “MGWIRDFGRRIERVGQHTRDATIQTIAVAQQAANVAATLRGLTQTAESFRGVSSQFFDAPNGPSVKQVLIEDEW [S1D.R.m]”, the Localisation entry is “Neither”.

Staying with this assay, now noted: peptide-Venus reporter construct expressed in Chlamydomonas reinhardtii; manual targeting assignment (Neither / Mitochondria / Chloroplast / Dual; partial = partial targeting).
Regarding “MQVTMKSSAVSGQRVMKYYGNGVHCTRSGCSVNWGEAFSAGVHRLANGGNGFW [c.LCA.R]”, the Localisation entry is given as “Neither”.
As to “MQVTMKSSAVSGQRVMKYYGNGVHCTRSGCSVNWGEAFSAGVHRLANGGNGFWSVRRAQLQVVASSRKQMGRWRSIDAGVDASDDQ [c.LCA.R.c]”, the Localisation entry was “Chloroplast”.
Still for that read-out and setting: under “MVNYGNGVSCSKTKCSVNWGIITHQAFRVTSGVASG [B15.K]” stands “Neither”; under “MQVTMKSSAVSGQRVGIGKFLHSAKKFGKAFVGEIMNSSVRRAQLQVVASSRKQMGRWRSIDAGVDASDDQ [c.MII.K.c]”, “Chloroplast”.
Turning to “MGLFSKFNKKKIKSGLIKIIKTAGKEAGLEALRTGIDVIGCKIKGECSVRRAQLQVVASSRKQMGRWRSIDAGVDASDDQ [E1S.K.c]”, the Localisation result is “Neither”.
In the case of MWLSKTAKKLENSAKKRISEGIAIAIKGGSR [CP3.K], the Localisation result is given as “Neither”.
With “MGIGKFLHSAKKFGKAFVGEIMNSLTQTAESFRGVSSQFFDAPNGPSVKQVLIEDEW [MII.K.m]”, the Localisation result is reported as “Mitochondria (partial)”.
“MQVTMKSSAVSGQRVMKYYGNGVHCTKSGCSVNWGEAFSAGVHRLANGGNGFW [c.LCA.K]”: the Localisation result is reported as “Neither”.
With MGIGKFLHSAKKFGKAFVGEIMNS [MII.K], the Localisation result is on record as “Mitochondria (partial)”.
For MFLPLLAGLAANFLPRIFCRITRRC [B1E.R], the Localisation entry is “Neither”.
As to “MQVTMKSSAVSGQRVMVNYGNGVSCSRTRCSVNWGIITHQAFRVTSGVASG [c.B15.R]”, the Localisation result is given as “Chloroplast”.
In the case of “MFLPLLAGLAANFLPRIFCRITRRCLTQTAESFRGVSSQFFDAPNGPSVKQVLIEDEW [B1E.R.m]”, the Localisation result is “Neither”.
For the sequence “MWLSRTARRLENSARRRISEGIAIAIRGGSRSVRRAQLQVVASSRKQMGRWRSIDAGVDASDDQ [CP3.R.c]”, the Localisation entry is recorded as “Chloroplast”.
Same read-out and setting: under “MGLFSKFNKKKIKSGLIKIIKTAGKEAGLEALRTGIDVIGCKIKGECLTQTAESFRGVSSQFFDAPNGPSVKQVLIEDEW [E1S.K.m]” stands “Neither”.
Take “MWLSKTAKKLENSAKKRISEGIAIAIKGGSRLTQTAESFRGVSSQFFDAPNGPSVKQVLIEDEW [CP3.K.m]”: the Localisation result is recorded as “Neither”.
In the case of “MQVTMKSSAVSGQRVMKYYGNGVHCTRSGCSVNWGEAFSAGVHRLANGGNGFWLTQTAESFRGVSSQFFDAPNGPSVKQVLIEDEW [c.LCA.R.m]”, the Localisation entry was “Neither”.
Turning to “MFLPLLAGLAANFLPKIFCKITRKCLTQTAESFRGVSSQFFDAPNGPSVKQVLIEDEW [B1E.K.m]”, the Localisation entry is reported as “Neither”.
Turning to “MQVTMKSSAVSGQRVMVNYGNGVSCSRTRCSVNWGIITHQAFRVTSGVASGLTQTAESFRGVSSQFFDAPNGPSVKQVLIEDEW [c.B15.R.m]”, the Localisation entry is listed as “Chloroplast”.
As for “MQVTMKSSAVSGQRVMKYYGNGVHCTKSGCSVNWGEAFSAGVHRLANGGNGFWSVRRAQLQVVASSRKQMGRWRSIDAGVDASDDQ [c.LCA.K.c]”, the Localisation result is given as “Chloroplast (partial)”.
The same measure, in the same setting: under “MQVTMKSSAVSGQRVMWLSKTAKKLENSAKKRISEGIAIAIKGGSRSVRRAQLQVVASSRKQMGRWRSIDAGVDASDDQ [c.CP3.K.c]” stands “Neither”.

The same assay, now with this note: targeting of the Venus reporter fused to the peptide, expressed in Chlamydomonas reinhardtii; manual assignment from epifluorescence microscopy; full or partial.
Take “MQVTMKSSAVSGQRVDEVNNDNCRIKFKGDISSESDKMNINYSVRRAQLQVVASSRKQMGRWRSIDAGVDASDDQ [c.RP2.K.c]”: the Localisation entry is “Neither”.
For “MGWIRDFGKRIERVGQHTRDATIQTIAVAQQAANVAATLKGLTQTAESFRGVSSQFFDAPNGPSVKQVLIEDEW [S1D.K.m]”, the Localisation entry was “Neither”.
Turning to “MQVTMKSSAVSGQRVMGWIRDFGKRIERVGQHTRDATIQTIAVAQQAANVAATLKG [c.S1D.K]”, the Localisation entry is “Mitochondria”.
With MDEVNNDNCRIKFKGDISSESDKMNINY [RP2.K], the Localisation result is reported as “Neither”.
Still for that read-out and setting: for “MQVTMKSSAVSGQRVMWLSKTAKKLENSAKKRISEGIAIAIKGGSRLTQTAESFRGVSSQFFDAPNGPSVKQVLIEDEW [c.CP3.K.m]” the value was “Chloroplast”; for “MQVTMKSSAVSGQRVMKYYGNGVSCNKKGCSVDWGKAIGIIGNNAAANLTTGGKAGWKG [c.EHF.K]”, “Neither”.
Take “MQVTMKSSAVSGQRVMWLSKTAKKLENSAKKRISEGIAIAIKGGSR [c.CP3.K]”: the Localisation result is given as “Neither”.
As for “MQVTMKSSAVSGQRVMWLSRTARRLENSARRRISEGIAIAIRGGSRLTQTAESFRGVSSQFFDAPNGPSVKQVLIEDEW [c.CP3.R.m]”, the Localisation result was “Neither”.
Turning to “MQVTMKSSAVSGQRVMSFLTTFKDLAIKAAKSAGQSVLSTLSCKLSNTC [c.B2I.K]”, the Localisation result is given as “Mitochondria (partial)”.
Regarding “MQVTMKSSAVSGQRVMGWIRDFGKRIERVGQHTRDATIQTIAVAQQAANVAATLKGLTQTAESFRGVSSQFFDAPNGPSVKQVLIEDEW [c.S1D.K.m]”, the Localisation result is “Dual”.
On the same count and under the same terms, under “MQVTMKSSAVSGQRVFLPLLAGLAANFLPRIFCRITRRC [c.B1E.R]” stands “Mitochondria”; under “MQVTMKSSAVSGQRVMALWKTMLKKLGTMALHAGKAAFGAAADTISQSVRRAQLQVVASSRKQMGRWRSIDAGVDASDDQ [c.DDM.K.c]”, “Chloroplast (partial)”; under “MQVTMKSSAVSGQRVMSFLTTFKDLAIKAAKSAGQSVLSTLSCKLSNTCSVRRAQLQVVASSRKQMGRWRSIDAGVDASDDQ [c.B2I.K.c]”, “Chloroplast (partial)”.
As for “MNIVVYWNFTLWHMDINARNAGCDGEGSLTQTAESFRGVSSQFFDAPNGPSVKQVLIEDEW [RP1.K.m]”, the Localisation entry is listed as “Neither”.
“MQVTMKSSAVSGQRVMALWKTMLKKLGTMALHAGKAAFGAAADTISQLTQTAESFRGVSSQFFDAPNGPSVKQVLIEDEW [c.DDM.K.m]”: the Localisation result is listed as “Neither”.
As for “MQVTMKSSAVSGQRVMGKIPVKAIKKAGAAIGKGLRAINIASTAHDVYSFFKPKHKKK [c.SIM.K]”, the Localisation result is on record as “Chloroplast (partial)”.
